The IC50 is the concentration that inhibits the measured activity by half. A higher IC50 goes with lower potency.

SMILES strings stand for the structures. Structures can show the parent of a compound that is named as a salt.

The test has as its target T1, human renin (Homo sapiens, UniProt P00797).
T1 sequence (P00797 67-406): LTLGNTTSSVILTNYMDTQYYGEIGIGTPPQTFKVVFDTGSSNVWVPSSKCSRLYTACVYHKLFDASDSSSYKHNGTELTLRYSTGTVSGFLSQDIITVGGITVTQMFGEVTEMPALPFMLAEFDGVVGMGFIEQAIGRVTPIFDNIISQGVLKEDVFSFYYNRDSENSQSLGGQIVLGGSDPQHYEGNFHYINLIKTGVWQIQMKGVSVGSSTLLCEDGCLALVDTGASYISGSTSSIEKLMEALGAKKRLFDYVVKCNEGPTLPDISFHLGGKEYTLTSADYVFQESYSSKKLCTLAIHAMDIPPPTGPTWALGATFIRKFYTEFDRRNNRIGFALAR
The test can be described thus: In vitro test with pure human renin. The following applies: human tetradecapeptide renin substrate (hTD), pH 7.4, three hours at 37° C., angiotensin I via RIA. In kind it is biochemical. As for the experimental part:
In vitro test with pure human renin
The test is carried out in Eppendorf test tubes. The incubation mixture consists of (1) 100 μl of human renin in buffer A (0.1M sodium phosphate solution, pH 7.4, containing 0.1% bovine serum albumin, 0.1% sodium azide and 1 mM ethylenediaminetetraacetic acid), sufficient for a renin activity of 2-3 ng of angiotensin I/ml/hr.; (2) 145 μl of buffer A; (3) 30 μl of 10 μM human tetradecapeptide renin substrate (hTD) in 10 mM hydrochloric acid; (4) 15 μl of dimethyl sulphoxide with or without inhibitor and (5) 10 μl of a 0.03 molar solution of hydroxyquinoline sulphate in water.
The samples are incubated for three hours at 37° C. or 4° C. in triplicate. 2×100 μl samples per experimental test tube are used in order to measure the production of angiotensin I via RIA (standard radioimmunoassay; clinical assay solid phase kit). Cross reactivities of the antibody used in the RIA are: angiotensin I 100%; angiotensin II 0.0013%; hTD (angiotensin I-Val-Ile-His-Ser-OH) 0.09%. The production of angiotensin I is determined by the difference between the experiment at 37° C. and that at 4° C.
The following controls are carried out:
(a) Incubation of hTD samples without renin and without inhibitor at 37° C. and 4° C. The difference between these two values gives the base value of the angiotensin I production.
(b) Incubation of hTD samples with renin, but without inhibitor at 37° C. and 4° C. The difference between these values gives the maximal value of angiotensin I production.
In each sample the base value of the angiotensin I production is subtracted from the angiotensin I production which is determined. The difference between the maximal value and the base value gives the value of the maximal substrate hydrolysis (=100%) by renin.
The results are given as IC50 values which denote that concentration of the inhibitor at which the enzymatic activity is inhibited by 50%. The IC50 values are determined from a linear regression curve from a logit-log plot.
`CC(C)(CN)S(=O)(=O)C[C@@H](Cc1ccccc1)C(=O)N[C@@H](Cc1c[nH]cn1)C(=O)N[C@@H](CC1CCCCC1)[C@@H](O)[C@@H](O)C1CC1` [A, (S)-α-[(S)-α-[[[(2-Amino-1,1-dimethylethyl)sulphonyl]methyl]hydrocinnamamido]-N-[(1S,2R,3S)-1-(cyclohexylmethyl)-3-cyclopropyl-2,3-dihydroxypropyl]imidazole-4-propionamidedihydrochloride] displayed a 50% inhibitory concentration (IC50) of 1.8 nM.

In the case of `CC(C)(N)CS(=O)(=O)C[C@@H](Cc1ccccc1)C(=O)N[C@@H](Cc1c[nH]cn1)C(=O)N[C@@H](CC1CCCCC1)[C@@H](O)[C@@H](O)C1CC1` [B, (S)-α-[(S)-α-[[(2-Amino-2-methylpropyl)sulphonyl]methyl]hydrocinnamamido]-N-[(1S,2R,3S)-1-(cyclohexylmethyl)-3-cyclopropyl-2,3-dihydroxypropyl]imidazole-4-propionamide diacetate], 17 nM corresponded to half-maximal inhibition (IC50).

In turn, `O=C(N[C@@H](CC1CCCCC1)[C@@H](O)[C@@H](O)C1CC1)[C@H](Cc1c[nH]cn1)NC(=O)[C@H](Cc1ccccc1)OC(=O)N1CCCCC1` [D, (S)-α-[[(S)-1-[[(1S,2R,3S)-1-(Cyclohexylmethyl)-3-cyclopropyl-2,3-dihydroxypropyl]carbamoyl]-2-imidazol-4-ylethyl]carbamoyl]phenethyl 1-piperidinecarboxylate] yielded an IC50 of 1.2 nM.

For `CC(C)(C)S(=O)(=O)C[C@@H](Cc1ccccc1)C(=O)N[C@@H](Cc1c[nH]cn1)C(=O)N[C@@H](CC1CCCCC1)[C@@H](O)[C@@H](F)C1CC1` [E, (S)-α-[(S)-α-[(tert-Butylsulphonyl)methyl]hydrocinnamamido]-N-[(1S,2R,3S)-1-(cyclohexylmethyl)-3-cyclopropyl-3-fluoro-2-hydroxypropyl]imidazole-4-propionamide], half-maximal inhibition (IC50) required 2.3 nM.

For `O=C(N[C@@H](Cc1c[nH]cn1)C(=O)N[C@@H](CC1CCCCC1)[C@@H](O)[C@@H](O)C1CC1)c1cc2ccccc2[nH]1` [F, N-[(S)-1-[[(1S,2R,3S)-1-(Cyclohexylmethyl)-3-cyclopropyl-2,3-dihydroxypropyl]carbamoyl]-2-imidazol-4-ylethyl]indole-2-carboxamide], the midpoint of inhibition, the IC50, lay at 21 nM.

For the origin of these results see US5688946A, “Amino acid derivatives having renin inhibiting activity” (Hoffmann La Roche Inc., priority 1989, dated 1997).
